{
  "source": "paper PMC10112881",
  "about": "(Cell reports, 2023)",
  "key": {"β2": {"molecular_target": "β2 (Homo sapiens, UniProt P07550)", "test": "G protein dissociation BRET assay", "assay_type": "cell-based", "settings": "read-out: KB (antagonist)"}, "Nav1.5 sodium channels": {"molecular_target": "Nav1.5 sodium channels (Homo sapiens, UniProt Q14524)", "sequence (Q14524 whole entry)": "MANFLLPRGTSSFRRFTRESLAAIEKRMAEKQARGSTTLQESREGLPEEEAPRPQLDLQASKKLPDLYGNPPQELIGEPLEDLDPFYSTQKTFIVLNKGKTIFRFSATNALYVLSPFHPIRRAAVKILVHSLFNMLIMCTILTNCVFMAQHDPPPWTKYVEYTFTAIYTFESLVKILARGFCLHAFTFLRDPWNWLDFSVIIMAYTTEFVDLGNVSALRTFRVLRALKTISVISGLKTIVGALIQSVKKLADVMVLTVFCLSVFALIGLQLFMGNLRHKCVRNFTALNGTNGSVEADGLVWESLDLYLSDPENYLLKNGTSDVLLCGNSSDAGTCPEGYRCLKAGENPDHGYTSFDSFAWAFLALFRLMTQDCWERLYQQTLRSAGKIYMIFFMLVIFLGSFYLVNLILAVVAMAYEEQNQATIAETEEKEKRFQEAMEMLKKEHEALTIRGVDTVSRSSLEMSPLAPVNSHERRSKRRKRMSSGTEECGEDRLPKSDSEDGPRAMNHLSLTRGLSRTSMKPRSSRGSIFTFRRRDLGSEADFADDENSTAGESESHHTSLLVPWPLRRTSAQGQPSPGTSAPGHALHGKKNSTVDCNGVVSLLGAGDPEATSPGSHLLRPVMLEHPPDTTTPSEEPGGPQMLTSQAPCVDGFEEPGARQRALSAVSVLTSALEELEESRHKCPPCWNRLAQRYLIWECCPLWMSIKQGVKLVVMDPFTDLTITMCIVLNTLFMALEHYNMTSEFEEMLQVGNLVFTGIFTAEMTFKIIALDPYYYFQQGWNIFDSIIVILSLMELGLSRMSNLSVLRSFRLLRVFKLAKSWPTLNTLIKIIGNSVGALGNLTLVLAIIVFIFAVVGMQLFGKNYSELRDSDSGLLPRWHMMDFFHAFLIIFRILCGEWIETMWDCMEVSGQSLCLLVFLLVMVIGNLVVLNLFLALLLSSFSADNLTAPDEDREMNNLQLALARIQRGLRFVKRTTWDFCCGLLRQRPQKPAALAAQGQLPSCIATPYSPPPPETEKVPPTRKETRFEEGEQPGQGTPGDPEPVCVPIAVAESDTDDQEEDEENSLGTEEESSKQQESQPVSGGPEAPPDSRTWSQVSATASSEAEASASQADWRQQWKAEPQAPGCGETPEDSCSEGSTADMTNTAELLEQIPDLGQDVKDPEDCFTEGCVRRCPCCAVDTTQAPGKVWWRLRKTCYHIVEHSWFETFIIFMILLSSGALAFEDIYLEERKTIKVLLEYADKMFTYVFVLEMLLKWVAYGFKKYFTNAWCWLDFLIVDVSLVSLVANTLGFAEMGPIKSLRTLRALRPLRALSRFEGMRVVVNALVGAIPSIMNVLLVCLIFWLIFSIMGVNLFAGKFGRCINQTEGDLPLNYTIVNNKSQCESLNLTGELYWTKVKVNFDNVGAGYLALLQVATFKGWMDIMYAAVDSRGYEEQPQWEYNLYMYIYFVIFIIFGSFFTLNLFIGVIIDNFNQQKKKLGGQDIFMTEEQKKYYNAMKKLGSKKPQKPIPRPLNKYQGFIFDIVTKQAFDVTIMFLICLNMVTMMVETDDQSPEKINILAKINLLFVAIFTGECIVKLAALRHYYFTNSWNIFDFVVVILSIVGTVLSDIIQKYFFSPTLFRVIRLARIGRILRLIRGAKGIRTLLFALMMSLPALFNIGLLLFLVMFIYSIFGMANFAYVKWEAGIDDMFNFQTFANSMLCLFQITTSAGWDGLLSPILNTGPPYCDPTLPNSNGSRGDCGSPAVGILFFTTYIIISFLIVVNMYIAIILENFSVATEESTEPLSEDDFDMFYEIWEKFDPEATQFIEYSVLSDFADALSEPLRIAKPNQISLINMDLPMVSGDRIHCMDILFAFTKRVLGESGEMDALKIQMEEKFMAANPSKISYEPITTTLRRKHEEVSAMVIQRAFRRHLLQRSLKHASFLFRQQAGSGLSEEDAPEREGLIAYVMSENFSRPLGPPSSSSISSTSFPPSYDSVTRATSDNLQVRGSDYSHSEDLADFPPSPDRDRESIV", "test": "Off-target panel: Nav1.5"}, "[1]": {"system": "5-HT1 Gi/o-coupled receptor subtypes", "test": "G protein dissociation BRET assay", "assay_type": "cell-based, human"}, "5-HT2A [2]": {"molecular_target": "T1, 5-HT2A (Homo sapiens, UniProt P28223)", "T1 sequence (P28223 whole entry)": "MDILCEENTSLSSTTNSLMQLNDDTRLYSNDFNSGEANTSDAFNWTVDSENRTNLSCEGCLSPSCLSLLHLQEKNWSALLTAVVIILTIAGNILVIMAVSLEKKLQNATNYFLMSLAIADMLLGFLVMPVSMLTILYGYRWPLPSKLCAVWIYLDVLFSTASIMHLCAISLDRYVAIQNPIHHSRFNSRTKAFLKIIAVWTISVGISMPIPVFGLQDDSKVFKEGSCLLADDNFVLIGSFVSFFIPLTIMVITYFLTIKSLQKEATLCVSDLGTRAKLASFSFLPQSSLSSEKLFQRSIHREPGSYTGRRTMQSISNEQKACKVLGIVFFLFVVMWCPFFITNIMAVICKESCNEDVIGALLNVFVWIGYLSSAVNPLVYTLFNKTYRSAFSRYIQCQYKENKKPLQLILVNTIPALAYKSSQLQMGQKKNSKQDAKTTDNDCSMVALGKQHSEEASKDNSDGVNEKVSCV", "test": "NanoBit HiBiT surface expression/internalization assay", "assay_type": "cell-based", "settings": "60 minutes of treatment"}, "β1": {"molecular_target": "β1 (Homo sapiens, UniProt P08588)", "test": "G protein dissociation BRET assay", "assay_type": "cell-based", "settings": "read-out: KB (antagonist)"}, "OCT2": {"molecular_target": "OCT2 (Homo sapiens, UniProt O15244)", "test": "Transporter panel: OCT2"}, "hERG (KV11.1) channel": {"molecular_target": "hERG (KV11.1) channel (Homo sapiens, UniProt Q12809)", "test": "hERG inhibition"}, "D3": {"molecular_target": "D3 (Homo sapiens, UniProt P35462)", "test": "G protein dissociation BRET assay", "assay_type": "cell-based", "settings": "relative to dopamine"}, "5-HT2A [3]": {"molecular_target": "T1, 5-HT2A", "assay_type": "cell-based", "settings": "Gq dissociation"}, "[4]": {"test": "Chronic variable stress: open field test", "assay_type": "in vivo, female mice"}, "[5]": {"system": "primary rat cortical neurons", "test": "Cell viability of primary cortical neurons", "assay_type": "cell-based", "settings": "every tested concentration"}, "D1/5 subtypes": {"system": "D1/5 subtypes", "test": "G protein dissociation BRET assay", "assay_type": "cell-based, human"}, "α1A": {"molecular_target": "α1A (Homo sapiens, UniProt P35348)", "test": "G protein dissociation BRET assay", "assay_type": "cell-based", "settings": "read-out: KB (antagonist)"}, "5-HT2A [6]": {"molecular_target": "T1, 5-HT2A", "assay_type": "cell-based", "settings": "β-arrestin recruitment, normalized to 5-HT"}, "D4": {"molecular_target": "D4 (Homo sapiens, UniProt P21917)", "test": "G protein dissociation BRET assay", "assay_type": "cell-based"}, "D2": {"molecular_target": "D2 (Homo sapiens, UniProt P14416)", "sequence (P14416 whole entry)": "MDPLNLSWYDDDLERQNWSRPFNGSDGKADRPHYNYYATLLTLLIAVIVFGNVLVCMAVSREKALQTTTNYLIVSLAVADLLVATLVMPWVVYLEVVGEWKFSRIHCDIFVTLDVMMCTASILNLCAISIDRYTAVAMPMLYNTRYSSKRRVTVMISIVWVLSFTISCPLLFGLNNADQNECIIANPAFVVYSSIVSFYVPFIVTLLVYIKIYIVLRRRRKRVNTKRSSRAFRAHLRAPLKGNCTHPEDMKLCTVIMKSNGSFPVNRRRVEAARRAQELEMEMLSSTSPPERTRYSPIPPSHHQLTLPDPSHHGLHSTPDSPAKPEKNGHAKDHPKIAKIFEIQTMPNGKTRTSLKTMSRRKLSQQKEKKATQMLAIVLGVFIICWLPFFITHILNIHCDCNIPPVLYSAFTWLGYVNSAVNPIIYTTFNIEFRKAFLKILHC", "test": "G protein dissociation BRET assay", "assay_type": "cell-based"}, "[7]": {"system": "rest of the histamine and muscarinic GPCRs", "test": "G protein dissociation BRET assay", "assay_type": "cell-based, human"}, "[8]": {"settings": "cited from earlier work"}, "[9]": {"test": "Pharmacokinetics in plasma and brain of mice", "settings": "for mean plasma Cmax / Cmax: IP 6.75 mg/kg; for mean terminal T1/2, plasma: range over doses; for Cmax: read-out: mean plasma Cmax"}, "α2C": {"molecular_target": "α2C (Homo sapiens, UniProt P18825)", "sequence (P18825 whole entry)": "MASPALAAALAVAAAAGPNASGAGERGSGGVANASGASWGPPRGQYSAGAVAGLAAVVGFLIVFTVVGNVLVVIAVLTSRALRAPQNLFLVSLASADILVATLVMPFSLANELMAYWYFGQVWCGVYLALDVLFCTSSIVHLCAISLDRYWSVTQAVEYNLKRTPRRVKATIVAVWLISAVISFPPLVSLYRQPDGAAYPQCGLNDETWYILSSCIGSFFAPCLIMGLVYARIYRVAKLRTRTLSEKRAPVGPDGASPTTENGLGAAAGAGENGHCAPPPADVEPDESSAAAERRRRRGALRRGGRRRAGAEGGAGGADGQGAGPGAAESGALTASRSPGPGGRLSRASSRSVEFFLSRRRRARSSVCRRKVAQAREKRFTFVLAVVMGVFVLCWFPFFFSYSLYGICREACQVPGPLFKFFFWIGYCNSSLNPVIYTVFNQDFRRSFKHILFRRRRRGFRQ", "test": "G protein dissociation BRET assay", "assay_type": "cell-based"}, "5-HT2B": {"molecular_target": "5-HT2B (Homo sapiens, UniProt P41595)", "sequence (P41595 whole entry)": "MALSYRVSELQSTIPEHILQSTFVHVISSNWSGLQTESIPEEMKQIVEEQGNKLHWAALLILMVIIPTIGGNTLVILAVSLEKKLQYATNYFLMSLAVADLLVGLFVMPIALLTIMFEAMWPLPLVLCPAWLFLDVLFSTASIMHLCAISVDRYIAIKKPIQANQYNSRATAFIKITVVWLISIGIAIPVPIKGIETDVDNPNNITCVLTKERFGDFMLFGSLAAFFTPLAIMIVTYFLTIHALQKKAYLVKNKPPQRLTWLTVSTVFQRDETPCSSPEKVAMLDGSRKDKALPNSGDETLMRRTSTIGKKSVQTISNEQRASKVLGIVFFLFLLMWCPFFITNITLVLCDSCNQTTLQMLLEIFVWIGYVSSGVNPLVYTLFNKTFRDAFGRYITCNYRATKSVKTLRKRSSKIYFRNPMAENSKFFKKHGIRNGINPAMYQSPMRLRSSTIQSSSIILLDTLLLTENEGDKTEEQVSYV", "test": "5-HT2B Gq dissociation, β-arrestin2 recruitment BRET and calcium flux assays"}, "5-HT5A": {"molecular_target": "5-HT5A (Homo sapiens, UniProt P47898)", "test": "G protein dissociation BRET assay", "assay_type": "cell-based", "settings": "read-out: KB (antagonist), 37°C, 60 minutes"}, "PFC pyramidal neurons": {"system": "PFC pyramidal neurons", "test": "Spine density in prefrontal cortex", "settings": "1 mg/kg IP, ~26 h after treatment, both sexes"}, "Open field test": {"test": "Open field test", "assay_type": "in vivo, C57BL/6J mice", "settings": "24 h after"}, "rat cortical neurons [10]": {"system": "rat cortical neurons", "test": "Dendritogenesis", "assay_type": "cell-based"}, "α2A": {"molecular_target": "α2A (Homo sapiens, UniProt P08913)", "test": "G protein dissociation BRET assay", "assay_type": "cell-based", "settings": "read-out: KB (antagonist)"}, "5-HT2C": {"molecular_target": "5-HT2C (Homo sapiens, UniProt P28335)", "sequence (P28335 33-458)": "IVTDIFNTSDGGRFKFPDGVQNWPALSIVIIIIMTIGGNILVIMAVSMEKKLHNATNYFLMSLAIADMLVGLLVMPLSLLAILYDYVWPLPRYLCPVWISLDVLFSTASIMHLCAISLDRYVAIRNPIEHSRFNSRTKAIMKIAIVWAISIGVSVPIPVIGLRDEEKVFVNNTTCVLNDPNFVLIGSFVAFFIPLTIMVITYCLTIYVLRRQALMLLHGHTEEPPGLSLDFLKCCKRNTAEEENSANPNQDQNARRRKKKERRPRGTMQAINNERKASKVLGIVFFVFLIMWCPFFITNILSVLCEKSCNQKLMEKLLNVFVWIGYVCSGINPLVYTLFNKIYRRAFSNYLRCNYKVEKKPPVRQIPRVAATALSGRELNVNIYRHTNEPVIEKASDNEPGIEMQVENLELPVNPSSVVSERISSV", "assay_type": "cell-based"}, "HTR induced by DOI [11]": {"system": "HTR induced by DOI", "test": "Blockade of DOI-induced head-twitch response", "settings": "DOI 1 mg/kg IP"}, "rat cortical neurons [12]": {"system": "rat cortical neurons", "test": "Spinogenesis in cultured cortical neurons", "assay_type": "cell-based", "settings": "1 and 10 μM, 3 h at DIV18, read 24 h after onset"}, "5-HT7a": {"molecular_target": "5-HT7a (Homo sapiens, UniProt P34969)", "test": "G protein dissociation BRET assay", "assay_type": "cell-based"}, "33 human aminergic GPCRs": {"system": "33 human aminergic GPCRs", "test": "Pan-aminergic GPCR functional screen", "assay_type": "cell-based", "settings": "of 33 aminergic GPCR targets tested"}, "5-HT1A": {"molecular_target": "5-HT1A (Homo sapiens, UniProt P08908)", "test": "β-arrestin2 recruitment BRET assay", "assay_type": "cell-based"}, "HTR induced by DOI [13]": {"system": "HTR induced by DOI", "test": "Tolerance to DOI-induced HTR after repeated treatment", "settings": "3 mg/kg/day IP 7 days, DOI 1 mg/kg challenge 24 h later"}, "5-HT6": {"molecular_target": "5-HT6 (Homo sapiens, UniProt P50406)", "sequence (P50406 whole entry)": "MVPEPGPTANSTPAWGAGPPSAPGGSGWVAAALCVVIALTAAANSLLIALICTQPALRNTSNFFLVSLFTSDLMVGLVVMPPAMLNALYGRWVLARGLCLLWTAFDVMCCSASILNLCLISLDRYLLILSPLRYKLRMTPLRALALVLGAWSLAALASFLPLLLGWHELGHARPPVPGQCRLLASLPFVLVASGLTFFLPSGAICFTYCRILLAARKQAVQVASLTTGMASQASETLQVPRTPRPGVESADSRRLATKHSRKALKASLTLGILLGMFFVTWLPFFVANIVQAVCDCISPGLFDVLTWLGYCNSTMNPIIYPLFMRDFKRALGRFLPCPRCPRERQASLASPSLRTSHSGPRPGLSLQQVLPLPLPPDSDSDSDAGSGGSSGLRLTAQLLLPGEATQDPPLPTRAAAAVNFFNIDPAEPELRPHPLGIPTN", "test": "G protein dissociation BRET assay", "assay_type": "cell-based", "settings": "read-out: EC50 (partial agonism)"}, "[14]": {"system": "44 known off-targets and other transporters", "test": "Eurofins panel of 44 known off-targets and other transporters"}},
  "note": "Read-outs that look alike come from different tables or passages of the source.",
  "data": [
    {"smiles": "CCN(CC)C(=O)[C@@H]1C=C2c3cccc4[nH]c(Br)c(c34)C[C@H]2N(C)C1.CCN(CC)C(=O)[C@@H]1C=C2c3cccc4[nH]c(Br)c(c34)C[C@H]2N(C)C1.O=C(O)C(O)C(O)C(=O)O", "note": "[2-Br-LSD, (6aR,9R)-2-bromolysergic acid diethylamide (2:1) (+)-tartrate]", "values": [
      {"measurement": "Kb", "setting": "β2", "value": 47, "unit": "nM"},
      {"measurement": "EC50", "setting": "Nav1.5 sodium channels", "value": 1100, "unit": "nM"},
      {"measurement": "agonism at all 5-HT1 subtypes", "setting": "[1]", "value": "potent pan-agonism"},
      {"measurement": "5-HT2A internalization (loss of surface expression)", "setting": "5-HT2A [2]", "value": "partial agonist effect"},
      {"measurement": "Kb", "setting": "β1", "value": 113, "unit": "nM"},
      {"measurement": "IC50", "setting": "OCT2", "value": 500, "unit": "nM"},
      {"measurement": "EC50", "setting": "hERG (KV11.1) channel", "value": 31600, "unit": "nM"},
      {"measurement": "EMAX", "setting": "D3", "value": 32, "unit": "%"},
      {"measurement": "EC50", "setting": "5-HT2A [3]", "value": 0.81, "unit": "nM"},
      {"measurement": "EMAX", "setting": "5-HT2A [3]; normalized to 5-HT", "value": 59.8, "unit": "%"},
      {"measurement": "exploration of the arena center in CVS mice", "setting": "[4]; 1X 3 mg/kg IP", "value": "partially restored the effect of CVS"},
      {"measurement": "exploration of the arena center in CVS mice", "setting": "[4]; 4X 1 mg/kg IP every 48 h", "value": "levels matching the control"},
      {"measurement": "time exploring the center in CVS mice", "setting": "[4]; 4X 1 mg/kg, 28 days after the last treatment", "value": "remained reversed"},
      {"measurement": "neuronal viability", "setting": "[5]", "value": "not different from control neurons"},
      {"measurement": "agonism at D1/5 subtypes", "setting": "D1/5 subtypes", "value": "lacks strong agonism"},
      {"measurement": "Kb", "setting": "α1A", "value": 43, "unit": "nM"},
      {"measurement": "EMAX", "setting": "5-HT2A [6]", "value": 36.9, "unit": "%"},
      {"measurement": "EC50", "setting": "D4", "value": 1.2, "unit": "nM"},
      {"measurement": "EC50", "setting": "D2", "value": 0.35, "unit": "nM"},
      {"measurement": "agonism or antagonism at the rest of the histamine and muscarinic GPCRs", "setting": "[7]", "value": "neither 2-Br-LSD nor LSD possessed weak agonism or antagonism"},
      {"measurement": "side effects in cluster headache patients", "setting": "[8]; 30 μg/kg orally on three occasions", "value": "only minor side effects"},
      {"measurement": "efficacy against cluster headaches", "setting": "[8]", "value": "showed efficacy against cluster headaches"},
      {"measurement": "subjective effects in humans", "setting": "[8]; intravenous infusion of 18–22 μg/kg", "value": "more intense effects"},
      {"measurement": "subjective effects in humans", "setting": "[8]; oral doses 64–256 μg/kg", "value": "mild subjective responses"},
      {"measurement": "level in the brain", "setting": "[9]; 4 h post-dosing", "value": "below the lower limit of detection"},
      {"measurement": "plasma concentrations, male compared to female mice", "setting": "[9]; IP", "value": "2–5 x"},
      {"measurement": "mean plasma Cmax", "setting": "[9]; females", "value": 826.06, "unit": "ng/mL"},
      {"measurement": "mean plasma Cmax", "setting": "[9]; males", "value": 1558.74, "unit": "ng/mL"},
      {"measurement": "mean terminal T1/2, plasma", "setting": "[9]; IP, female mice", "value": "54 to 156", "unit": "min"},
      {"measurement": "mean T1/2 in the brain", "setting": "[9]; IP, females", "value": "24 to 78", "unit": "min"},
      {"measurement": "mean brain Tmax", "setting": "[9]; IP, male and female mice", "value": 10.2, "unit": "min"},
      {"measurement": "mean terminal T1/2, plasma", "setting": "[9]; IP, male mice", "value": "72 to 84", "unit": "min"},
      {"measurement": "mean T1/2 in the brain", "setting": "[9]; IP, males", "value": "42 to 60", "unit": "min"},
      {"measurement": "plasma Tmax", "setting": "[9]; IP, all groups except male mice at 0.75 mg/kg", "value": 12, "unit": "min"},
      {"measurement": "plasma Tmax", "setting": "[9]; IP, male mice, 0.75 mg/kg", "value": 30, "unit": "min"},
      {"measurement": "Cmax", "setting": "[9]; females", "value": 2100, "unit": "nM"},
      {"measurement": "Cmax", "setting": "[9]; males", "value": 3900, "unit": "nM"},
      {"measurement": "EC50", "setting": "α2C", "value": 10.4, "unit": "nM"},
      {"measurement": "EMAX", "setting": "α2C; partial agonism", "value": 40.5, "unit": "%"},
      {"measurement": "5-HT2B agonist activity", "setting": "5-HT2B; Gq dissociation, β-arrestin2 recruitment, Gq-mediated calcium flux", "value": "failed to induce"},
      {"measurement": "5-HT2B antagonist activity", "setting": "5-HT2B; vs 5-HT", "value": "potent antagonist activity"},
      {"measurement": "Kb", "setting": "5-HT5A", "value": 4.14, "unit": "nM"},
      {"measurement": "average spine density in PFC", "setting": "PFC pyramidal neurons", "value": "significant increase in average spine density"},
      {"measurement": "locomotion (distance travelled)", "setting": "Open field test; 0.3, 1, 3 mg/kg IP, females and males", "value": "neither females nor males showed a significant increase in locomotion"},
      {"measurement": "increase in time in the arena center", "setting": "Open field test; female mice, 1 mg/kg IP", "value": "88.18 ± 18.89", "unit": "s"},
      {"measurement": "increased exploration of the open field center", "setting": "Open field test; male mice", "value": "not significant"},
      {"measurement": "total length of the dendritic arbor", "setting": "rat cortical neurons [10]; 1 and 10 μM, 3 h at DIV3", "value": "increased the total length of the dendritic arbor"},
      {"measurement": "number of dendrites crossing the Sholl radii", "setting": "rat cortical neurons [10]; 3 h treatment DIV3, read DIV6, maximal at 1 and 10 μM", "value": "dose-dependent increase"},
      {"measurement": "Kb", "setting": "α2A", "value": 12, "unit": "nM"},
      {"measurement": "β-arrestin2 recruitment agonism", "setting": "5-HT2C", "value": "no detectable β-arrestin2 recruitment agonism"},
      {"measurement": "time-course of blockade of the response to DOI", "setting": "HTR induced by DOI [11]; 1 mg/kg IP pre-treatment", "value": "almost completely blocked during the first 10 minutes"},
      {"measurement": "attenuation of the response to DOI", "setting": "HTR induced by DOI [11]; 3 mg/kg IP pre-treatment, 30 min", "value": 76, "unit": "%"},
      {"measurement": "spine density", "setting": "rat cortical neurons [12]", "value": "spine density increased"},
      {"measurement": "activity at 5-HT7a", "setting": "5-HT7a", "value": "act as antagonists"},
      {"measurement": "number of aminergic GPCR targets with agonist activity", "setting": "33 human aminergic GPCRs", "value": 14},
      {"measurement": "β-arrestin2 recruitment agonism", "setting": "5-HT1A", "value": "no detectable β-arrestin2 recruitment agonism"},
      {"measurement": "tolerance on HTR after repeated treatment", "setting": "HTR induced by DOI [13]", "value": "no tolerance was observed"},
      {"measurement": "EC50", "setting": "5-HT6", "value": 0.35, "unit": "nM"},
      {"measurement": "preference for serotonin and dopamine GPCRs over off-targets", "setting": "[14]", "value": "> 100", "unit": "fold"}
    ]}
  ]
}
